#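 GI50 is the concentration that inhibits growth by half. TGI is the concentration that stops growth completely.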
# What was measured:
# Test in all cases: NCI anticancer screen, dose series, 384-well format
# [1] = system: A549 NSCLC
# [2] = system: CAKI-1 renal
# [3] = system: COLO 205 colon
# [4] = system: HOP-62 NSCLC
# [5] = system: HOP-92 NSCLC
# [6] = system: LOX IMVI melanoma
# [7] = system: MALME-3M melanoma
# [8] = system: NCI-H460 NSCLC
# [9] = system: SF-268 CNS
# [10] = system: SK-MEL-28 melanoma
# [11] = system: SK-MEL-5 melanoma
# [12] = system: SNB-75 CNS
# [13] = system: TK-10 renal
smiles,measurement,setting,value
C[C@H](N)C(=O)N1C[C@H](CCCB(O)O)[C@](N)(C(=O)O)C1,GI50,[1],> 100 µM
same,TGI,[1],> 100 µM
same,GI50,[2],> 100 µM
same,TGI,[2],> 100 µM
same,GI50,[3],> 92 µM
same,TGI,[3],> 100 µM
same,GI50,[4],> 100 µM
same,TGI,[4],> 100 µM
same,GI50,[5],> 100 µM
same,TGI,[5],> 100 µM
same,GI50,[6],> 100 µM
same,TGI,[6],> 100 µM
same,GI50,[7],> 100 µM
same,TGI,[7],> 100 µM
same,GI50,[8],> 100 µM
same,TGI,[8],> 100 µM
same,GI50,[9],> 100 µM
same,TGI,[9],> 100 µM
same,GI50,[10],> 100 µM
same,TGI,[10],> 100 µM
same,GI50,[11],> 100 µM
same,TGI,[11],> 100 µM
same,GI50,[12],> 100 µM
same,TGI,[12],> 100 µM
same,GI50,[13],> 100 µM
same,TGI,[13],> 100 µM
